Tests used:
PC12 cells = test: Lectin array glycoanalysis (Qproteome Glycoprofiling Kit) of membrane proteins of PC12 cells treated with BFA; format: cell-based; conditions: 12 ug/ml BFA, 24 h
Protocol: (§1) Lectins with differing, well-characterized glycan-binding specificities are spotted on the surface of an array. The array is probed with a biotinylated membrane glycoprotein mixture and washed to reduce background. Bound biotinylated glycoproteins are visualized with Cy®3-labeled streptavidin using a microarray scanner. Following scanning, the resulting images are analyzed using Qiagen GlycoAnalyzer Software.
(§2) Each lectin is printed on the slides at seven concentrations. The analysis provides a lectin fingerprint for each sample: a histogram in which each bar represents the slope of the dose-response curve observed for each lectin. […] All fingerprints in an experiment are preferably normalized to the fingerprint of the reference sample. Microarray technologies generally require normalization between slides to adjust for variations that arise from technology, rather than from biological differences. The normalization in Qproteome Glycoprofiling Kits is preferably based on a robust-regression algorithm (using MM-estimators; please see Example 9 for a description).
Materials and Methods: PC12 cells were treated with 12 ug/ml BFA for 24 h. […] Cells were then harvested and analyzed with the Qproteome Glycoprofiling Kit (Qiagen USA; the assay was performed as described in the kit manual according to manufacturer's instructions).

3T3L1 cells = test: Lectin array glycoanalysis (Qproteome Glycoprofiling Kit) of membrane proteins of 3T3L1 cells treated with DMJ; format: cell-based, mouse; conditions: pre-confluent 3T3L1 cells, 800 ug/ml DMJ, 3 days, FIG. 4
Protocol: as §1, §2
Materials and Methods: Pre-confluent 3T3L1 cells were incubated for 3 days in the presence or absence of 800 ug/ml DMJ. Cells were then harvested and analyzed with the Qproteome Glycoprofiling Kit (Qiagen USA; the assay was performed as described in the kit manual according to manufacturer's instructions).

C[C@H]1CCC/C=C/[C@@H]2C[C@H](O)C[C@H]2[C@H](O)/C=C/C(=O)O1 [BFA, Brefeldin A]
cell morphology / attachment (PC12 cells): morphological changes were observed and cells were detached | antennarity of the membrane glycoproteins (lectin that binds N-linked complex antennary structures) (PC12 cells; FIG. 3): significant decrease | signals from lectins recognizing terminal sugars such as alpha-galactose, beta-galactose, sialic acid and fucose (PC12 cells; FIG. 3): Decreases

OC[C@H]1NC[C@@H](O)[C@@H](O)[C@@H]1O [DMJ, 1-deoxymannojirimycin]
antennarity (lectins that bind N-linked complex antennary structures) (3T3L1 cells; vs non-treated cells): strongly reduced | signals from all oligomannose binding lectins (high mannose glycans) (3T3L1 cells; vs non-treated cells): significantly increased | sugars found on antennae termini such as beta galactose and sialic acid (3T3L1 cells): decrease

Reference: patent US20120165206A1, “Method and Assay for Glycosylation Pattern Detection Related to Cell State” (priority 2006, published 2012)
